Source: ChEMBL document CHEMBL2073969, “Increased renal expression of bilirubin glucuronide transporters in a rat model of obstructive jaundice” (Am J Physiol Gastrointest Liver Physiol, 2002)

Molecular target: ATP-binding cassette sub-family C member 2 (Homo sapiens, UniProt Q92887)
Experiment: TP_TRANSPORTER: RT-PCR in renal proximal tubular epithelial cells
Type: functional, tissue-based, Kidney
Conditions: epithelial cell

Sequence of ATP-binding cassette sub-family C member 2 (Q92887 whole entry): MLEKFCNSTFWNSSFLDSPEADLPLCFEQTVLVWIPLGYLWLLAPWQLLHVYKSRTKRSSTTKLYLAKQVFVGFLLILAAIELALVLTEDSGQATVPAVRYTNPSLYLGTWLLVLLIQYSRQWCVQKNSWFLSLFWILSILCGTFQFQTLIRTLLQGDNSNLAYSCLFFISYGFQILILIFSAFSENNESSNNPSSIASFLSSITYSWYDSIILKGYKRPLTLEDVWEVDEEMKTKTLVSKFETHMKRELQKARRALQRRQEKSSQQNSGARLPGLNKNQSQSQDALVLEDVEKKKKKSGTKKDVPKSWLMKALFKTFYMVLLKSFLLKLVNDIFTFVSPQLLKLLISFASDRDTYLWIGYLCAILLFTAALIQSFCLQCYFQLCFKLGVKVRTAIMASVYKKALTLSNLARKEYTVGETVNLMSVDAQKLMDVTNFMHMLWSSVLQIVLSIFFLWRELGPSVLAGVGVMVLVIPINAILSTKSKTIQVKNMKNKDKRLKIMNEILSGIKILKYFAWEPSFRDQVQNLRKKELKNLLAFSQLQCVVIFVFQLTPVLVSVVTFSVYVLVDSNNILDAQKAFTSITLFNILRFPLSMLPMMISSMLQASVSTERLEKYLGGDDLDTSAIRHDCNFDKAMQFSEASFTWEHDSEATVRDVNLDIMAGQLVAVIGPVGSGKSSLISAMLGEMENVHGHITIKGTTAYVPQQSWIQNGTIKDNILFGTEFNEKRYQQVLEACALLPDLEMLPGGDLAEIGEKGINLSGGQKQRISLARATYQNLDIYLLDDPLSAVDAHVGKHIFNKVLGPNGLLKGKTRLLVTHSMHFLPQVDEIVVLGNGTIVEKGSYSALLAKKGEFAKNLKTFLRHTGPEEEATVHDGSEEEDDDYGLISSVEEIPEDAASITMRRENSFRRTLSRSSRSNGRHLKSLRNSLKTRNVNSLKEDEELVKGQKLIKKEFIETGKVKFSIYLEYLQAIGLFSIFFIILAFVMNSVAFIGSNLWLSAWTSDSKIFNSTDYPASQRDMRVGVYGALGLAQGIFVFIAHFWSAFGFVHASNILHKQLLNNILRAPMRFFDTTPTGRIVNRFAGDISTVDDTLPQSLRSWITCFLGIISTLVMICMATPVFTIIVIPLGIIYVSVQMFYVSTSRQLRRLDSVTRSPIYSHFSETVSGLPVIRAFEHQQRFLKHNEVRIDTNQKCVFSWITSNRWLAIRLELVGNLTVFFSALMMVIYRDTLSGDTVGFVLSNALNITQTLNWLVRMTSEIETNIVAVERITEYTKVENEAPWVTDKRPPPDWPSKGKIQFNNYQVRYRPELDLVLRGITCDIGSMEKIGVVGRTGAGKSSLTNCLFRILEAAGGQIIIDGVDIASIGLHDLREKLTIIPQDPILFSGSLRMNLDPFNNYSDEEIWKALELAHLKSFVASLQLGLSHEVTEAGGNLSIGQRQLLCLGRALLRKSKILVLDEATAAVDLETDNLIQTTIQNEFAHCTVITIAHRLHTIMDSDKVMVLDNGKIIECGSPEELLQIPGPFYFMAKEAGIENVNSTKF

Row | Activity | SMILES
1 | inducer [+] | C[C@H](CCC(=O)NCCS(=O)(=O)O)[C@H]1CC[C@H]2[C@@H]3CC[C@@H]4C[C@H](O)CC[C@]4(C)[C@H]3CC[C@]12C [TAUROLITHOCHOLIC ACID]
2 | inducer [+] | C=CC1=C(C)/C(=C/c2[nH]c(Cc3[nH]c(/C=C4\NC(=O)C(C)=C4C=C)c(C)c3CCC(=O)NCCS(=O)(=O)O)c(CCC(=O)NCCS(=O)(=O)O)c2C)NC1=O [BILIRUBIN DITAURATE]
